Measurements reported in ChEMBL document CHEMBL3507680, “University of Dundee, Gates Library screen for HepG2 cell viability”.

Test: Human HepG2 cell viability assay in 384 well format
Type: toxicity, cell-based
Design: dose 125 nL, time 70.5 hour; concentration not given beside the values
Conditions: HepG2 cells, read-out: Inhibition

| Compound | cytotoxicity at 70.5 h [%] |
| --- | --- |
| CCNC(=O)N1CCC(c2ccccc2)C1 (centres undefined) | 2.66 |
| CS(=O)(=O)N1CCC(CNC(=O)c2cnccn2)CC1 | 31.3 |
| COc1ccc(CN2CC[C@H](c3nnc(-c4ccco4)o3)C2)cc1 | 23 |
| NC(=O)CN1C(=O)CO[C@H]2CN(Cc3ccc(Cl)cc3)C[C@H]21 | 13 |
| CCNC(=O)N1C[C@@H]2OCC(=O)N(CC3CCCCC3)[C@@H]2C1 | -3.95 |
| CN1CC2(CCN(C(=O)c3ccc4nonc4c3)CC2)CC1=O | -11.3 |
| Cc1ncsc1CCN(C)C(=O)CN1CCCCCC1=O | -2.38 |
| O=C1NCC2(CCCN(c3ncnc4c3CCC4)CC2)O1 (centres undefined) | 2.31 |
| CCc1ccc2nc(C)cc(C(=O)NC3CCC(=O)N(C)C3)c2c1 (centres undefined) | -4.56 |
| Cc1cc(C(F)(F)F)nc(CCNC(C)Cn2nc(C)cc2C)n1 (centres undefined) | -16.8 |
| Cc1ccc(S(N)(=O)=O)cc1C(=O)N1CCc2c(ncnc2N(C)C)C1 | 0.0385 |
| CCOCCC(=O)NCC1CCCO1 (centres undefined) | -6.72 |
| CCN(CC)CCn1ccnc1-c1cccc(C#N)c1 | -4.77 |
| CCn1c(CC2CCN(S(=O)(=O)c3cccs3)CC2)nn(C)c1=O | 10.6 |
| Cc1nnc(SCCNC(=O)Cn2cnc3ccccc3c2=O)s1 | -4.19 |
| CCC[C@H]1CN(C(=O)c2cc(-c3cccs3)n(C)n2)C[C@@H]1N | -0.00623 |
| Cc1nsc(NC(=O)N2CCCC2C)n1 (centres undefined) | 2.78 |
| CCC(=O)N1CCCC(Cn2cc(-c3ccc(F)cc3)nn2)C1 (centres undefined) | -6.83 |
| COc1ccccc1-c1ccc(NCc2cn3c(n2)SCC3)nn1 | -7.12 |
| O=C(c1ccc(=O)[nH]c1)N1CCc2c(nc(-c3cccnc3)[nH]c2=O)C1 | -3.02 |
| O=C1CCc2ccccc2N1CCCn1cnnn1 | -7.93 |
| COCCCN(Cc1cnc(N2CCCC2)nc1)C1CCN(C)CC1 | -20.3 |

| Compound | cytotoxicity at 70.5 h [%] |
| --- | --- |
| Cc1cnc(CNCc2cnc(-c3ccccc3C)s2)cn1 | -1.03 |
| CCN(Cc1noc(CC(C)C)n1)Cc1cc2ccc(F)cc2[nH]c1=O | 0.157 |
| COc1cccc(OCC(=O)N2CCC3(CC2)[C@H](O)C[C@@H]3OC)c1 | -5.93 |
| Cc1ccnn1CCC(=O)N1CCOC(CCc2ccccc2)C1 (centres undefined) | -7.51 |
| COCCCN1CC2(CCN(Cc3cc(C(C)C)no3)CC2)CC1=O | 0.169 |
| N#Cc1cccc(N2CCCC3(CCC(=O)N(C4CCCC4)C3)C2)n1 (centres undefined) | 4.95 |
| CN(C)C(=O)c1noc2c1CN(C(=O)CCCN1CCCCC1)CC2 | 10.8 |
| CCC/C=C/c1ccc(CN2CCN(C)CC2)cn1 | 26 |
| CN(C)CCN1CC(C(=O)N2CCC(c3cc(=O)[nH]cn3)CC2)CC1=O (centres undefined) | 3.73 |
| O=C(Nc1ccc(S(=O)(=O)Nc2ccccc2)cc1)N1CCCC1 | -11.6 |
| CCCN1CCC(CC(=O)N(C)CC(=O)c2ccc(O)cc2)CC1 | -12.2 |
| CO[C@H]1CN(C(=O)c2ccc(-c3cc[nH]n3)cc2)CC[C@H]1N | -8.35 |
| CCOc1cc(CNCc2cnc(C)cn2)c(Cl)cc1OC(C)C | 3.1 |
| Cc1ocnc1C(=O)N[C@H]1CN(CC2CCC2)C[C@@H]1C(C)C | -1.41 |
| CC1(C)CN(c2cc(C3CC3)ncn2)C[C@]1(C)O | 21.7 |
| CN(C)C(C(=O)N1CCSCC1)c1ccccc1F (centres undefined) | -5.06 |
| Cc1cc(C(=O)N2C[C@H](C(C)C)[C@@H](N(C)C)C2)cs1 | -2.9 |
| COc1ccc(OC2CCN(C(=O)c3cnc(C)s3)CC2)cc1 | -4.93 |
| COc1ccc(N2CCN(C(=O)CCCc3cn[nH]c3)CC2=O)cc1 | 24.3 |
| COc1cc(-n2cc(CCO)cn2)ccc1NC(C)=O | -9.17 |
| COC(=O)c1cc(C)nc(N2CCN(Cc3cc(C(C)C)no3)CC2)n1 | -12.8 |
| Cc1nc(NCCc2noc(C3CCCO3)n2)c2sccc2n1 (centres undefined) | 49.7 |

| Compound | cytotoxicity at 70.5 h [%] |
| --- | --- |
| Cc1nc(C)c(C(=O)N2C[C@@H](C(=O)O)[C@H](C3CC3)C2)s1 | -1.71 |
| CCC(=O)N1CCN(C(=O)Nc2cccc(C#N)c2)[C@H]2CS(=O)(=O)C[C@H]21 | -15.6 |
| CCCc1cc(C(=O)N2CCC3(CCCN(CCO)C3=O)C2)cs1 (centres undefined) | -0.486 |
| CCNC(=O)[C@@H]1C[C@@H](N)CN1Cc1ccc(Sc2ccc(C)cc2)o1 | -4.77 |
| Cc1nc(CNC(=O)c2cc(COc3ccccc3F)[nH]n2)n[nH]1 | 17.2 |
| CN(CCc1ccccc1)Cc1cc(C(=O)N2CCN(C)C(=O)C2)no1 | -14.7 |
| O=C(Cc1ccc(O)c(Cl)c1)N1CCCCC1CCn1cccn1 (centres undefined) | -4.41 |
| CCc1nc(C)c([C@H]2CN(C)C[C@@H]2C(=O)Nc2ccc(OC)cc2)[nH]1 | -7.07 |
| CN(CCCc1cnn(C)c1)C(=O)C1CCOC1 (centres undefined) | 12.6 |
| CCC(OC)C(=O)N1CCc2nc(NC)nc(C(=O)N3CCCC3)c2C1 (centres undefined) | -5.78 |
| CN(C)c1nc2c(c(N3CCC(O)CC3)n1)CN(CC1CCNC1)CC2 (centres undefined) | -11.3 |
| CNC(=O)CN(C)c1nc(-c2ccncc2)nc2c1CCN(C(C)=O)C2 | -6.78 |
| COc1cc(C)sc1C(=O)N1CC(c2cccnc2)C1 | -3.92 |
| Cc1[nH]c(=O)[nH]c(=O)c1CN1CCCC(CCc2c(F)cccc2F)C1 (centres undefined) | -12.5 |
| COCCC(=O)N1CCC2(CC1)CC(c1ccccc1)CN(C)C2 (centres undefined) | -5.14 |
| CC(C)N1CCC(NCc2cccnc2N(C)C)CC1 | 2.11 |
| Cc1nc(N2CCN(C)CC2)ncc1C(=O)N1CCC(O)(CO)CC1 | -6.38 |
| CN(CCCc1cnn(C)c1)C(=O)C1COc2ccccc2C1 (centres undefined) | -5.74 |
| CCCc1noc(CN(C)C(=O)C2COc3ccccc3C2)n1 (centres undefined) | -16.1 |
| O=S1(=O)COCCN1Cc1cccc(Cl)c1 | -8.17 |
| CCn1cc(CN2CCCC(CO)(CCc3ccccc3)C2)c(C)n1 (centres undefined) | -7.26 |
| CCc1cc(NCCc2ccc(O)cc2)n2nccc2n1 | 2.9 |

| Compound | cytotoxicity at 70.5 h [%] |
| --- | --- |
| COc1ccccc1[C@@H]1CN(Cc2cc(C(C)(C)C)[nH]n2)C[C@H]1C(=O)O | -7.86 |
| O=C(CCCc1cn[nH]c1)N1C[C@@H](CN2CCOCC2)[C@@H](CO)C1 | 17.7 |
| CN(CCc1ccccc1)Cc1cc(C(=O)N2CCCC2(C)C)no1 | 8.4 |
| O=C(c1cnccn1)N1C[C@@H]2CC[C@H](C1)N(C(=O)Cc1ccsc1)C2 | -1.28 |
| COc1ccc(C(=O)C2CCCN(Cc3ccncc3)C2)c(OC)c1 (centres undefined) | -9.3 |
| CCN(CC)c1ccc(-c2nc(-c3cccc(OC)c3OC)no2)cn1 | -7.4 |
| COC(=O)c1ccc2ccn(CC3CCNC3)c(=O)c2c1 (centres undefined) | -1.63 |
| Cc1ccsc1CN(CCN(C)C)Cc1ccccn1 | -4.97 |
| Cc1ccccc1CSc1nc(N)cc(N2C[C@H](O)[C@@H](N(C)C)C2)n1 | -2.01 |
| COC(=O)N1C[C@H]2CC[C@@H]1CN(Cc1cscn1)C2 | 1.18 |
| CC(C)Oc1cccc(C(=O)C2CCCN(C(=O)c3ncn[nH]3)C2)c1 (centres undefined) | -9.49 |
| O=C(CN1CCCC(c2ccc(C(=O)O)cc2)C1)NC1CC1 (centres undefined) | -5.55 |
| COc1ccccc1CN(C)C(=O)c1cc(CN2CCC(O)CC2)on1 | -0.685 |
| CNC(=O)c1cccc(CNC(=O)C2CC(=O)N(CCN(C)C)C2)c1 (centres undefined) | -5.17 |
| COCC(O)CNC(=O)c1cnc(-c2ccccc2)nc1O (centres undefined) | -11.4 |
| CCCC(C)CN1CCC(n2cc(C3CCCC3)nn2)CC1 (centres undefined) | -6.08 |
| CCn1nc(CC(C)C)cc1C(=O)N1C[C@H](O)[C@@H](N2CCCCC2)C1 | -4.55 |
| CCc1ncc(CNC2CC(=O)N(CCc3cccc(Cl)c3)C2)cn1 (centres undefined) | -4.07 |
| CCn1c(Cn2cncn2)nnc1C1CCN(Cc2ccncc2)CC1 | -6.34 |
| CC(C)c1nccn1CCCNC(=O)c1ccc(N(C)C)nc1 | -1.73 |
| Cn1cccc1C(=O)N1CCCN(CCCc2ccccc2)CC1 | 7.34 |
| Cn1c(Cn2ccnc2)nnc1C1CCN(C(=O)C2(C)CC2)CC1 | -9.41 |

| Compound | cytotoxicity at 70.5 h [%] |
| --- | --- |
| CCn1nc(C)c(CCNC(=O)C2CCCN(C(=O)N(C)C)C2)c1C (centres undefined) | -11.9 |
| Cc1nn(C)cc1C(=O)N1C[C@H]2CC[C@@H]1CN(S(=O)(=O)N(C)C)C2 | -4.81 |
| CCOCCn1nc(C)cc1C(=O)N1CC[C@](C)(O)[C@H](C)C1 | -8.61 |
| Cc1cc(N2CCC3(CCC(=O)N(CC4CC4)C3)CC2)nc(N)n1 | -9.89 |
| O=C(O)CCc1cc2n(n1)CCCN(C(=O)c1ccc3cc[nH]c3c1)C2 | -14 |
| NC(=O)COc1cccc(C(=O)Nc2cnc3n2CCCC3)c1 | -5.66 |
| CN(Cc1ccon1)C(=O)C1CC(=O)N(Cc2ccncc2)C1 (centres undefined) | -6.33 |
| O=C1O[C@@H]2CN(Cc3cccc(F)c3)C[C@@H]2N1CCCN1CCOCC1 | 9.24 |
| O=C(CCc1cc2n(n1)CCCN(C(=O)c1ccccn1)C2)NC1CC1 | -4.46 |
| COc1ccc2c(c1)CCN(CCC(=O)NC1CCCCC1)CC2 | -9.14 |
| CN1CCCN(C[C@@H]2CN(C(=O)CCC3CCCC3)C[C@@H]2CO)CC1 | -7.86 |
| CCn1nc(C)c(CCNC(=O)C2CCCN(CC(N)=O)C2)c1C (centres undefined) | 19.1 |
| Cc1noc(C)c1CN1CC2(CCN(C(=O)c3cscn3)CC2)CC1=O | -10.1 |
| CN1CCN(Cc2nc3ccccc3[nH]2)[C@H]2CS(=O)(=O)C[C@H]21 | -10.2 |
| COc1ccccc1[C@@H]1CN(C(=O)c2csc(C)n2)C[C@H]1C(=O)O | -2.79 |
| O=S1(=O)C[C@@H]2[C@H](C1)N(Cc1cc(Cl)cc(Cl)c1)CCN2CC1CC1 | -17.1 |
| NC(=O)CN1CC2(CCC1=O)CCN(Cc1cc(F)ccc1Cl)CC2 | -11.5 |
| Cc1noc(C)c1C(=O)N(C)Cc1nc(-c2ccccn2)no1 | -1.56 |
| Cc1noc([C@@H]2CCCN2C(=O)C2CCN(C(=O)C3CCC3)CC2)n1 | 10.6 |
| Cc1ccc2cc(C3(O)CCN(C(=O)CN4CCCC4)CC3)ccc2n1 | -3.01 |
| Cc1nc[nH]c1CN1C[C@@H]2CC[C@H](C1)N(C(=O)CCc1cnn(C)c1)C2 | -1.54 |
